Reference: patent US8722023B2, “Depigmenting or brigthening cosmetic composition comprising at least one oxazolin as an active ingredient” (Laboratoires Expanscience, priority 2005, dated 2014)

Assays:
[1] = system: Melanocyte/keratinocyte co-cultures (NHEM-NHEK; M/K); assay: Viability (MTT test) of M/K co-cultures; format: cell-based, human; conditions: for Viability percentage (MTT test): 240 hours
Method: (§1) Melanocyte/keratinocyte co-cultures (NHEM-NHEK; M/K) are incubated for 240 hours, in the absence or presence of OX100. The quantity of melanin present in the cells after incubation is measured by spectrophotometry. 1) M/K co-cultures are inoculated in medium free of PMA (phorbol myristate acetate) and are brought to 60-80% confluence for the test. 2) Three identical culture series are prepared in order to measure: • cytotoxicity by a MTT (tetrazolium salt) test and by morphological observation of the cells, • quantity of melanin, • quantity of total proteins (in order to determine the ratio of melanin to total protein). 3) Treatment conditions are as follows: • OX100 at three concentrations: 2×10^−6, 10^−5, 2×10^−5 M. • Kojic acid (reference depigmenting molecule). • IBMX (3-isobutyl-1-methylxanthine, pro-pigmenting reference molecule). Each treatment condition is carried out in triplicate. The co-cultures are incubated for 240 hours in the presence or absence of the compounds above. Irradiation by ultraviolet rays (25 mJ/cm^2 of UVB+300 mJ/cm^2 of UVA) is carried out four times per day for consecutive four days.

[2] = system: normal human melanocytes in co-culture (NHEM-NHEK; M/K); assay: Production of melanin in M/K co-cultures, irradiated or not; format: cell-based; conditions: for quantity of melanin compared to the control (control = 100) / variation of the quantity of melanin compared to the control (value in brackets): 240 hours
Method: as §1, with “The effect of OX100 was studied on the production of melanin by normal human melanocytes in co-culture (NHEM-NHEK; M/K) irradiated or not. Melanocyte/keratinocyte” for “Melanocyte/keratinocyte”, “days. At the end of the treatment, the cellular monolayers are washed. After cell lysis, the melanin crystals are extracted and solubilized. The melanin is quantified by measurement of the OD (optical density) at 450 nm and by comparison with a range of melanin standards.” for “days.”

[3] = system: skin of the hands (spot-free area and pre-identified pigmentation spot); assay: Colorimetric measurements (Chromameter) on the hands, treated hand vs. control hand; format: in vivo, human (adult female volunteers); conditions: for Individual typological angle (ITA), treated hand / Lightness variable L*, treated hand: mean ± SEM
Description: Among these volunteers, 14% were North-African in origin and 86% Mediterranean, including 76% of phototype IV and 10% of phototype V. All of these volunteers had lentigo pigmentation spots on the hands and most had them on the face. COLORIMETRIC MEASUREMENTS (Chromameter™): Variance homogeneity and distribution normality were verified in all cases. Measurements are taken on the hands, in an area without pigmentation spots. The results correspond to the means and deviations with respect to the mean-SEM. The time and product effects results with values less than 0.05 are statistically significant. The result corresponding to both the time and product effects gives the value of the probability of the differences Δ (T=6 weeks minus T0) by the Student's t-test in a paired series (bilateral significance test, p<0.05). Measurements are carried out on the hands in an area with pigmentation spots. The results correspond to the means and deviations with respect to the mean-SEM.

[4] = system: lentigo pigmentation spots, skin of hands and face; assay: Clinical evaluation of hands and face after six weeks of application; format: in vivo, human (adult female volunteers)
Description: Among these volunteers, 14% were North-African in origin and 86% Mediterranean, including 76% of phototype IV and 10% of phototype V. All of these volunteers had lentigo pigmentation spots on the hands and most had them on the face. The results of the statistically significant variation, after six weeks of application, of some of the criteria evaluated are given in table 6 below: The percentages correspond to variations with respect to the initial evaluations, the p value corresponds to probability p with respect to the initial evaluations (Wilcoxon test, bilateral significance test, p<0.05). For measurements of pigmentation spot intensity, the intensity of the spot is identified beforehand. The results of the statistically significant variation, after six weeks of application, of some of the criteria evaluated are given in table 7 below: The percentages correspond to variations with respect to the initial evaluations, the p value corresponds to probability p with respect to the initial evaluations (Wilcoxon test, bilateral significance test, p<0.05). For measurements of pigmentation spot intensity, the intensity of the spot is identified beforehand.

[5] = Overall assessment of the product's acceptability and effectiveness by the volunteers; format: in vivo, human (adult female volunteers); design: unit not given here; conditions: panel of 21 volunteers
Description: Overall Assessment of the Product's Acceptability and Effectiveness by the Volunteers

[6] = Assessment of cutaneous acceptability by the volunteers; format: in vivo, human (adult female volunteers); design: volunteers reporting no cutaneous manifestations: unit not given here
Description: Assessment of Cutaneous Acceptability by the Volunteers

[7] = area with spots (pre-identified pigmentation spot), T = 0 (before treatment)
[8] = area with spots (pre-identified pigmentation spot), T = 6 weeks
[9] = spot-free area of the hands, T = 0 (before treatment)
[10] = spot-free area of the hands, T = 6 weeks

CC(C)Cn1c(=O)n(C)c(=O)c2[nH]cnc21 [IBMX, 3-isobutyl-1-methylxanthine, reference compound]
Viability percentage (MTT test) ([1]; 200 μM, With UV): 111%
Viability percentage (MTT test) ([1]; 200 μM, Without UV): 118%
quantity of melanin compared to the control (control = 100) ([2]; 200 μM, With UV): 114%
quantity of melanin compared to the control (control = 100) ([2]; 200 μM, Without UV): 118%
variation of the quantity of melanin compared to the control (value in brackets) ([2]; With UV): +14%
variation of the quantity of melanin compared to the control (value in brackets) ([2]; Without UV): +15%

O=c1cc(CO)occ1O [Kojic acid, reference compound]
Viability percentage (MTT test) ([1]; 0.0156 mg/ml, With UV): 99%
Viability percentage (MTT test) ([1]; 0.0156 mg/ml, Without UV): 102%
quantity of melanin compared to the control (control = 100) ([2]; 15.6 μg/ml, With UV): 83%
variation of the quantity of melanin compared to the control (value in brackets) ([2]; 15.6 μg/ml, With UV): −20%
quantity of melanin compared to the control (control = 100) ([2]; 15.6 μg/ml, Without UV): 74%
variation of the quantity of melanin compared to the control (value in brackets) ([2]; 15.6 μg/ml, Without UV): −35%

CCCCCCCCCCCC1=NC(C)(C)CO1 [OX100, 2-undecyl-4,4-dimethyl-1,3-oxazoline]
Individual typological angle (ITA), treated hand [3, 7]: 5.0 ± 4.5
Lightness variable L*, treated hand [3, 7]: 51.2 ± 1.1
Individual typological angle (ITA), treated hand [3, 8]: 11.0 ± 5.2
Lightness variable L*, treated hand [3, 8]: 52.4 ± 1.2
increase in chromaticity coordinate L* ([3]; area with spots, six weeks of applications, compared to initial values and control hand, p=0.048): +2%
Individual typological angle (ITA), treated hand [3, 9]: 38.5 ± 2.4
Lightness variable L*, treated hand [3, 9]: 58.4 ± 0.7
Individual typological angle (ITA), treated hand [3, 10]: 44.1 ± 2.4
Lightness variable L*, treated hand [3, 10]: 59.2 ± 0.7
increase in ITA ([3]; spot-free area, six weeks of applications, compared to initial values and control hand, p=0.008): +13%
increase in chromaticity coordinate L* ([3]; spot-free area, six weeks of applications, compared to initial values and control hand, p=0.017): +2%
COLOR LIGHTNESS, variation with respect to initial evaluation ([4]; face, p = 0.0001 (Wilcoxon)): +22% (p = 0.0001)
INTENSITY OF THE PIGMENTATION SPOT, variation with respect to initial evaluation ([4]; face, p = 0.0196 (Wilcoxon)): −8% (p = 0.0196)
COLOR UNIFORMITY, variation with respect to initial evaluation ([4]; face, p = 0.0455 (Wilcoxon)): +4% (p = 0.0455)
SKIN LIGHTNESS, variation with respect to initial evaluation ([4]; hands, p = 0.0002 (Wilcoxon)): +16% (p = 0.0002)
INTENSITY OF THE PIGMENTATION SPOT, variation with respect to initial evaluation ([4]; hands, p = 0.0143 (Wilcoxon)): −5% (p = 0.0143)
SKIN UNIFORMITY, variation with respect to initial evaluation ([4]; hands, p = 0.0209 (Wilcoxon)): +10% (p = 0.0209)
volunteers reporting somewhat good to good effectiveness as a depigmenting/lightening product [5]: Thirty-eight
dermatological tolerance, conclusion in words ([6]; conclusion of Example 6): dermatologically well-tolerated
volunteers reporting no cutaneous manifestations ([6]; panel of 21 volunteers): Ninety-five
volunteers reporting no ocular manifestations ([6]; panel of 21 volunteers): 100%
Viability percentage (MTT test) ([1]; 2 × 10^−5 M, With UV): 105%
Viability percentage (MTT test) ([1]; 2 × 10^−5 M, Without UV): 115%
Viability percentage (MTT test) ([1]; 2 × 10^−6 M, With UV): 97%
Viability percentage (MTT test) ([1]; 2 × 10^−6 M, Without UV): 102%
Viability percentage (MTT test) ([1]; 10^−5 M, With UV): 99%
Viability percentage (MTT test) ([1]; 10^−5 M, Without UV): 108%
toxicity for the M/K co-cultures, in words ([1]; at the concentrations tested): not toxic
quantity of melanin compared to the control (control = 100) ([2]; 2 × 10^−5 M, With UV): 104%
variation of the quantity of melanin compared to the control (value in brackets) ([2]; 2 × 10^−5 M, With UV): +4%
quantity of melanin compared to the control (control = 100) ([2]; 2 × 10^−5 M, Without UV): 89%
variation of the quantity of melanin compared to the control (value in brackets) ([2]; 2 × 10^−5 M, Without UV): −12%
quantity of melanin compared to the control (control = 100) ([2]; 2 × 10^−6 M, With UV): 100%
variation of the quantity of melanin compared to the control (value in brackets) ([2]; 2 × 10^−6 M, With UV): 0%
quantity of melanin compared to the control (control = 100) ([2]; 2 × 10^−6 M, Without UV): 102%
variation of the quantity of melanin compared to the control (value in brackets) ([2]; 2 × 10^−6 M, Without UV): −1%
quantity of melanin compared to the control (control = 100) ([2]; 10^−5 M, With UV): 99%
variation of the quantity of melanin compared to the control (value in brackets) ([2]; 10^−5 M, With UV): −1%
quantity of melanin compared to the control (control = 100) ([2]; 10^−5 M, Without UV): 104%
variation of the quantity of melanin compared to the control (value in brackets) ([2]; 10^−5 M, Without UV): +4%
effect on melanin in the irradiated study model, in words ([2]; irradiated co-cultures (UVB + UVA)): neutralizes the effect of ultraviolet rays
inhibition of the synthesis of melanin ([2]; non-irradiated co-cultures, 2.10^−5 M, p<0.01): roughly 12%
